Earlier results, collected in patent publication US11353469B2, “Nontoxic compounds for use as taggants in nutritional and pharmaceutical products” (Hall Labs, LLC, priority 2019, dated 2022).
Like-named read-outs stand apart in the source and are kept apart here.

Conditions: for amount recoverable in urine: single dose of 1 g/kg body weight

Compound: C[S+](C)[O-] [DMSO, dimethylsulfoxide]
- time after administration at which DMSO has been detected in urine (applied topically): 2 h
- time after administration at which compound could be detected in urine (orally administered): 30 min
- time of peak excretion in urine (orally administered): ≤ 4 h
- amount recoverable in urine (administered orally): 30-68%
- amount recoverable in urine (applied topically): 13%
